Experimental data taken from ChEMBL document CHEMBL3351629, “Modulators of the nuclear receptor retinoic acid receptor-related orphan receptor-γ (RORγ or RORc)” (J Med Chem, 2014).
Values belong to the compound of their own block, whether it stands above or below them.

Tests used:
[1] = biological target: T1, Nuclear receptor ROR-gamma (Homo sapiens) (UniProt P51449); assay: Agonist activity at human RoRc-LBD expressed in Jurkat cells assessed as production of IL-17 at 3 uM by luciferase assay in absence of anti-CD3 relative to basal activity; type: cell-based
T1 sequence (whole entry): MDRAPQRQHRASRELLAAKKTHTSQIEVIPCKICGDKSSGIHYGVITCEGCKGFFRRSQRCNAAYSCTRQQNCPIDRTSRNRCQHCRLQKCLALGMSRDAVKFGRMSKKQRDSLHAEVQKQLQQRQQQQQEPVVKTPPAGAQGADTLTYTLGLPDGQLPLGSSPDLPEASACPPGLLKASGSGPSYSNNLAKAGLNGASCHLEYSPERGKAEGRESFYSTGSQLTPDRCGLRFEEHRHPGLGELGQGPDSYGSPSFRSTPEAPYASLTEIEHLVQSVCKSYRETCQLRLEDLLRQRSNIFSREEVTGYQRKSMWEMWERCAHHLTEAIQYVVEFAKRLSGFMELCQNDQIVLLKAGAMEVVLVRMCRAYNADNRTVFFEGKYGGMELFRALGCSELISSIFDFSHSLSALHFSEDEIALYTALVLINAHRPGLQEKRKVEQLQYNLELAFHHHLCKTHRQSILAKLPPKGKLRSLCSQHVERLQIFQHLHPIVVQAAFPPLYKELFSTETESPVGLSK

[2] = biological target: T2, Nuclear receptor ROR-gamma (Homo sapiens, UniProt P51449); assay: Inverse agonist activity at human RoRc-LBD expressed in cells assessed as SRC1 to 2 coactivator peptide recruitment; type: functional, cell-based
T2 sequence (P51449 whole entry): T1 sequence (whole entry)

[3] = biological target: T2, Nuclear receptor ROR-gamma; assay: Agonist activity at human RoRc-LBD expressed in CHO cells assessed as transcriptional activity by GAL4 reporter assay; type: functional, cell-based
[4] = biological target: T2, Nuclear receptor ROR-gamma; assay: Inverse agonist activity at human RoRc-LBD fusion protein with GST expressed in […] cells assessed as SRC1 coactivator peptide recruitment; type: functional, cell-based
[5] = biological target: T2, Nuclear receptor ROR-gamma; assay: Agonist activity at RoRc-LBD (unknown origin) expressed in HEK293 cells assessed as transcriptional activity by GAL4 reporter assay; type: functional, cell-based
[6] = biological target: T2, Nuclear receptor ROR-gamma; assay: Inverse agonist activity at human RoRc-LBD expressed in cells assessed as TRAP-220 coactivator peptide recruitment; type: functional, cell-based
[7] = biological target: T3, Nuclear receptor ROR-gamma (Mus musculus, UniProt P51450); assay: Activity at RoRc in mouse CD4+ T cells assessed as inhibition of IL-17 production; type: cell-based, T-cell
T3 sequence (P51450 whole entry): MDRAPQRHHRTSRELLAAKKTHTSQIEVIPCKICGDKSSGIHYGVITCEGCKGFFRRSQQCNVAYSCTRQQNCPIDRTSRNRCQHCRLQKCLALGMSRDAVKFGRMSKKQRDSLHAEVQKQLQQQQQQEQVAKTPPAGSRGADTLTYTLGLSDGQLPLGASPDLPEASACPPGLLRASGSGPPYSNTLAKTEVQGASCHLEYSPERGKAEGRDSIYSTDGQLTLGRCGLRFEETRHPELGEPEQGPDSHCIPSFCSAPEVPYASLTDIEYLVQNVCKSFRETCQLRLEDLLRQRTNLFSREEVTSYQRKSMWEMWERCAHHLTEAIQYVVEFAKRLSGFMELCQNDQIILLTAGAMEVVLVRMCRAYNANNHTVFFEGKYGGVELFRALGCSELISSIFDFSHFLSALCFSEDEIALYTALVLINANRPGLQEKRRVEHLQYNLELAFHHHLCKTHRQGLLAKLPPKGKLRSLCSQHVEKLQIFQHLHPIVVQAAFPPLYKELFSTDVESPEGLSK

[8] = biological target: T2, Nuclear receptor ROR-gamma; assay: Inhibition of RORc (unknown origin) assessed as inhibition of fluorescein-D22 recruitment by TR-FRET assay; type: functional
[9] = biological target: T4, Nuclear receptor ROR-gamma (Mus musculus) (UniProt P51450); assay: Activity at RoRc in mouse CD4+ T cells assessed as inhibition of IL-17 production at 10 uM; type: cell-based; details: T-cell
T4 sequence (whole entry): T3 sequence (P51450 whole entry)

[10] = biological target: T2, Nuclear receptor ROR-gamma; assay: Agonist activity at human RoRc-LBD in human PBMC cells assessed as inhibition of IL-17A production by luciferase assay; type: functional, cell-based
[11] = biological target: T2, Nuclear receptor ROR-gamma; assay: Agonist activity at RoRc-LBD (unknown origin) expressed in Drosophilla S2 cells assessed as transcriptional activity by GAL4 reporter assay; type: functional, cell-based
[12] = biological target: T2, Nuclear receptor ROR-gamma; assay: Inverse agonist activity at human RoRc in human skin model assessed as suppression of IL-17F level relative to control; type: functional
[13] = biological target: T2, Nuclear receptor ROR-gamma; assay: Inverse agonist activity at human RoRc in human skin model assessed as suppression of IL-17A level relative to control; type: functional
[14] = biological target: T1, Nuclear receptor ROR-gamma (Homo sapiens); assay: Activity at human RoRc in human Jurkat cells assessed as inhibition of IL-17 promoter at 3 uM relative to control; type: cell-based

Activity [1]: 220%
SMILES: Cc1cccc(C(=O)Nc2cc(-c3ccccc3)no2)c1

IC50 [2]: 0.001 µM
SMILES: Cc1cc(Cl)ccc1C(NC(=O)Cc1ccc(OCc2c(C)noc2C)cc1)c1ccc(Cl)cc1 (stereo not given)

EC50 [3]: 0.071 µM
SMILES: Cc1ccc(Cl)c(NC(=O)C[C@H](CC(=O)O)c2noc([C@H]3C[C@@H](CC(C)C)C3)c2C2CC2)c1

EC50 [4]: < 0.5 µM
EC50 [5]: < 0.5 µM
SMILES: Cc1c(S(N)(=O)=O)cc(-c2cc(C(C)(C)C)cc(C(C)(C)C)c2)n1CC1CCCCC1

SMILES: O=S(=O)(c1cc(F)ccc1OC(F)(F)F)N1Cc2nccnc2-n2ccnc2[C@H]1Cc1ccccc1
EC50 [4]: < 0.5 µM
EC50 [5]: < 0.5 µM

EC50 [4]: 1 µM
SMILES: CCS(=O)(=O)c1ccc(CC(=O)Nc2nc(-c3cc(Cl)ccc3Cl)cs2)cc1

EC50 [6]: < 0.1 µM
EC50 [7]: < 0.1 µM
SMILES: [2H]C([2H])([2H])N(C(=O)c1c(F)cccc1Cl)c1ccc(-c2cc(C(=O)NCC(C)(C)O)ccc2Cl)cc1N(C([2H])([2H])C([2H])([2H])[2H])C([2H])([2H])C([2H])([2H])[2H]

EC50 [8]: < 0.05 µM
SMILES: CCS(=O)(=O)c1ccc(CC(=O)Nc2ccc(-c3ccccc3)c(Oc3ccccc3)c2)cc1

EC50 [3]: 0.053 µM
SMILES: Cc1ccc(NC(=O)C[C@H](CCC(=O)O)c2nnn([C@H]3C[C@@H](CC(C)(C)C)C3)c2C(F)(F)F)c(C)c1

EC50 [3]: 0.32 µM
SMILES: Cc1ccc(NC(=O)C[C@H](CC(=O)O)c2noc([C@H]3C[C@@H](CC(C)C)C3)c2C2CC2)c(Cl)c1

EC50 [4]: 4 µM
SMILES: CN1c2cc3c(cc2N=C(c2ccc(C(=O)O)cc2)c2ccc4ccccc4c21)C(C)(C)CCC3(C)C

SMILES: O=S(=O)(c1ccccc1OC(F)(F)F)N1Cc2cncnc2-n2ccnc2[C@H]1Cc1ccccc1
EC50 [4]: < 0.5 µM
EC50 [5]: < 0.5 µM

inhibition [9]: 95%
SMILES: COc1ccc(C(C(=O)Nc2ccc(C(C)(C)C)cc2)N(C)C(=O)c2c[nH]c(=O)cn2)cc1 (stereo not given)

Activity [1]: 220%
SMILES: CCC(=O)Nc1ccc2nn(-c3ccc(CC)cc3)nc2c1

EC50 [10]: < 1 µM
EC50 [2]: < 0.016 µM
SMILES: Cc1noc(C)c1COc1ccc(S(=O)(=O)N(CC(C)C)c2ccc(Cl)cc2)cc1

EC50 [4]: < 0.5 µM
SMILES: O=S(=O)(c1cccc2cccnc12)N1Cc2ccccc2COCC1Cc1ccccc1 (stereo not given)

EC50 [7]: 0.009 µM
SMILES: CCS(=O)(=O)c1ccc(CC(=O)Nc2ccc3c(ccn3CCc3ccc(Cl)cc3Cl)c2)cc1

EC50 [6]: < 0.1 µM
EC50 [7]: < 0.1 µM
SMILES: CN(C(=O)c1c(F)cccc1Cl)c1ccc(-c2cc(C(N)=O)ccc2Cl)cc1O[C@@H]1C[C@@H]2C[C@@H]2C1

IC50 [2]: 0.001 µM
SMILES: Cc1ccc(C(NC(=O)Cc2ccc(OCC(O)c3cccnc3C)cc2)c2ccccc2)c(C)c1 (stereo not given)

IC50 [5]: 15 µM
IC50 [2]: < 15 µM
SMILES: N#Cc1cccc(S(=O)(=O)N2C[C@H](CO)Oc3ccc(NC(=O)c4c(F)cccc4Cl)cc32)c1

SMILES: C[C@H]1O[C@@H](O[C@H]2[C@@H](O)C[C@H](O[C@H]3[C@@H](O)C[C@H](O[C@H]4CC[C@@]5(C)[C@H](CC[C@@H]6[C@@H]5C[C@@H](O)[C@]5(C)[C@@H](C7=CC(=O)O/C7=C\c7ccccc7O)CC[C@]65O)C4)O[C@@H]3C)O[C@@H]2C)C[C@H](O)[C@@H]1O
EC50 [11]: 1 µM

IC50 [2]: 0.001 µM
SMILES: Cc1ccc([C@@H](NC(=O)Cc2ccc3oc(C(c4ccncc4)N4CC(N)C4)cc3c2)c2ccccc2)c(C)c1 (stereo not given in full)

EC50 [8]: < 0.05 µM
SMILES: CCS(=O)(=O)c1ccc(CC(=O)Nc2ccc(-n3ccc(C)n3)c(Oc3cccc(OC(F)(F)F)c3)c2)cc1

EC50 [12]: < 10 µM
EC50 [13]: < 10 µM
SMILES: OC(c1ccc(CN2CCCc3cc(-c4cn[nH]c4)ccc32)cc1)(C(F)(F)F)C(F)(F)F

SMILES: COC(=O)[C@H]1CC[C@]2(O)[C@@H]3CC[C@@H]4C[C@@H](O[C@H]5C[C@H](O)[C@H](O[C@H]6C[C@H](O)[C@H](O[C@H]7C[C@H](O)[C@H](O)[C@@H](C)O7)[C@@H](C)O6)[C@@H](C)O5)CC[C@]4(C)[C@H]3C[C@@H](O)[C@]12C
EC50 [11]: 1 µM

inhibition [14]: 96%
inhibition [9]: 91%
SMILES: COc1ccc(-c2c(-c3nc(CC(=O)NCC4CCOCC4)cs3)cnn2C(C)(C)C)cc1F
